US20100063047A1 (KALYPSYS, INC., priority 2008, published 2010)

Legend:
human H4 = target: T1, human H4 (Homo sapiens, UniProt Q9H3N8); assay: In vitro histamine H4 receptor cell-based aequorin bioluminescence antagonist assay; conditions: CHO-K1 cells expressing human H4, aequorin and Gα16; histamine at EC80
T1 construct: host or cells: CHO-K1, also expressing mitochondrion-targeted aequorin and human Gα16
Procedure: In vitro Histamine Receptor Cell-Based Assays
The cell-based assays utilize an aequorin dependent bioluminescence signal. Doubly-transfected, stable CHO—K1 cell lines expressing human H1 or H4, mitochondrion-targeted aequorin, and (H4 only) human G protein Gα16 are obtained from Perkin-Elmer. Cells are maintained in F12 (Ham's) growth medium, containing 10% (vol./vol.) fetal bovine serum, penicillin (100 IU/mL), streptomycin (0.1 mg/mL), zeocin (0.25 mg/mL) and geneticin (0.40 mg/mL). Cell media components are from Invitrogen, Inc. One day prior to assay, the growth medium is replaced with the same, excluding zeocin and geneticin.
For assay preparation, growth medium is aspirated, and cells are rinsed with calcium-free, magnesium-free phosphate-buffered saline, followed by two to three minute incubation in Versene (Invitrogen, Inc.) at 37° C. Assay medium (DMEM:F12 [50:50], phenol-red free, containing 1 mg/mL protease-free bovine serum albumin) is added to collect the released cells, which are then centrifuged. The cell pellet is re-suspended in assay medium, centrifuged once more, and re-suspended in assay medium to a final density of 5×10^6 cells/mL. Coelenterazine-h dye (500 μM in ethanol) is added to a final concentration of 5 μM, and mixed immediately. The conical tube containing the cells is then wrapped with foil to protect the light-sensitive dye. The cells are incubated for four hours further at room temperature (approximately 21° C.) with end-over-end rotation to keep them in suspension.
Just before assay, the dye-loaded cells are diluted to 0.75×10^6 cells/mL (H1 receptor) or 1.5×10^6 cells/mL (H4 receptor) with additional assay medium. Cells are dispensed to 1536 well micro-titer plates at 3 μL/well. To assay receptor antagonism, 60 nl of 100× concentration test compounds in 100% dimethyl sulfoxide (DMSO) are dispensed to the wells, one compound per well, by passive pin transfer, and the plates are incubated for 15 minutes at room temperature. […] The pipette dispenses 3 μL/well of agonist (histamine, at twice the final concentration, where final concentration is a previously determined EC80) in assay medium, with concurrent bioluminescence detection. Agonist activity of test compounds is excluded by separate assays that measure response to test compounds immediately, without added histamine agonist.
CCD image capture on the Lumilux includes a 5 second baseline read prior to agonist addition, and generally a 40 second read per plate after agonist addition. A decrease in bioluminescence signal (measured either as area-under-the-curve, or maximum signal amplitude minus minimum signal amplitude) correlates with receptor antagonism in a dose dependent manner. The negative control is DMSO lacking any test compound. For antagonist assays, the positive controls are diphenhydramine (2-Diphenylmethoxy-N,N-dimethylethylamine, 10 μM final concentration, H1 receptor) or JNJ7777120 (1-[(5-Chloro-1H-indol-2-yl)carbonyl]-4-methyl-piperazine, 10 μM final concentration, H4 receptor). Efficacy is measured as a percentage of positive control activity.

human H1 = target: T2, human H1 (Homo sapiens, UniProt P35367); assay: In vitro histamine H1 receptor cell-based aequorin bioluminescence antagonist assay; conditions: CHO-K1 cells expressing human H1 and aequorin; histamine at EC80; read-out: H1 Antagonist EC50
T2 construct: host or cells: CHO-K1, also expressing mitochondrion-targeted aequorin
Procedure, shortened: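 CHO-K1 cells stably expressing human H1 or H4 plus mitochondrial aequorin (H4 also with Gα16), loaded with 5 μM coelenterazine-h for 4 h at ~21 °C. Compounds preincubated 15 min at room temperature, then histamine at EC80 added.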

T2 sequence (P35367 whole entry): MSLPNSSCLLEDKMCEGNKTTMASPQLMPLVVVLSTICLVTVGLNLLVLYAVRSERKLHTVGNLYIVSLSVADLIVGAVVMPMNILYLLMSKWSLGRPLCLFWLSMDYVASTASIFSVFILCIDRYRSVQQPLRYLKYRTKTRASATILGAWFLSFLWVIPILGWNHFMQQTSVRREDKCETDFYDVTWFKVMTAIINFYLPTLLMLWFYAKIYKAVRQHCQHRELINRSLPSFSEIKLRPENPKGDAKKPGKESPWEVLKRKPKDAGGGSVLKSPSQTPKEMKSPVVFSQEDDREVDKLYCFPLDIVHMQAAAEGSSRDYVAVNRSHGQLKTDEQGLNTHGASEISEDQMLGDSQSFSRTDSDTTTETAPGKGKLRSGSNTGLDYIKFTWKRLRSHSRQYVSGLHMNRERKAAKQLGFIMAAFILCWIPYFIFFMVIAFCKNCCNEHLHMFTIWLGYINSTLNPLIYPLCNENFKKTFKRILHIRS
T1 sequence (Q9H3N8 whole entry): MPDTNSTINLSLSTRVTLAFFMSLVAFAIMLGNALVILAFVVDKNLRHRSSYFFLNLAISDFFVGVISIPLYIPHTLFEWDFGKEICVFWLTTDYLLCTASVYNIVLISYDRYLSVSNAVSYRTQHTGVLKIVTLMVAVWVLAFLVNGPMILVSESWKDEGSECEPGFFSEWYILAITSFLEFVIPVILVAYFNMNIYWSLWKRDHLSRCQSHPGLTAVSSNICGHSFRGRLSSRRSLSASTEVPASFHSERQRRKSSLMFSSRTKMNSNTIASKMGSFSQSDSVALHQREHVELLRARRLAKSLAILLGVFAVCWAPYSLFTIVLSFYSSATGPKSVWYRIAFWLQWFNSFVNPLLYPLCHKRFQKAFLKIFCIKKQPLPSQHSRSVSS

Row | SMILES | EC50 (human H4) | EC50 (human H1)
1 | Cc1csc2ncnc(NCCCO)c12 [Example 62, 3-({5-methylthieno[2,3-d]pyrimidin-4-yl}amino)propan-1-ol] | > 10 µM | > 10 µM
2 | Cc1csc2ncnc(CNCc3ccc(Cl)cc3)c12 [Example 35, N-(4-chlorobenzyl)-1-(5-methylthieno[2,3-d]pyrimidin-4-yl)methanamine] | > 10 µM | > 10 µM
3 | Cc1csc2ncnc(N3CCN(C4CCCCC4)CC3)c12 [Example 239, 1-cyclohexyl-4-{5-methylthieno[2,3-d]pyrimidin-4-yl}piperazine] | > 10 µM | > 10 µM
4 | Cc1csc2ncnc(NCCCn3ccnc3)c12 [Example 105, N-[3-(1H-imidazol-1-yl)propyl]-5-methylthieno[2,3-d]pyrimidin-4-amine] | > 10 µM | > 10 µM
5 | CCCNc1ncnc2scc(C)c12 [Example 54, 5-methyl-N-propylthieno[2,3-d]pyrimidin-4-amine] | > 10 µM | > 10 µM
6 | Cc1csc2ncnc(N3CCC(O)(O)CC3)c12 [Example 228, 1-{5-methylthieno[2,3-d]pyrimidin-4-yl}piperidine-4,4-diol] | > 10 µM | > 10 µM
7 | CCNc1ncnc2scc(C)c12 [Example 50, N-ethyl-5-methylthieno[2,3-d]pyrimidin-4-amine] | > 10 µM | > 10 µM
8 | CCC(C)Nc1ncnc2scc(C)c12 (centres unmarked) [Example 60, N-(butan-2-yl)-5-methylthieno[2,3-d]pyrimidin-4-amine] | > 10 µM | > 10 µM
9 | Cc1csc2ncnc(N3CCN(c4ccc(C(C)(C)C)cc4)CC3)c12 [Example 284, 1-(4-tert-butylphenyl)-4-{5-methylthieno[2,3-d]pyrimidin-4-yl}piperazine] | > 10 µM | > 10 µM
10 | COc1ccc(N2CCN(c3ncnc4scc(C)c34)CC2)cc1 [Example 261, 1-(4-methoxyphenyl)-4-{5-methylthieno[2,3-d]pyrimidin-4-yl}piperazine] | > 10 µM | > 10 µM
11 | Cc1csc2ncnc(N3CCN(c4ccc(F)cc4)CC3)c12 [Example 246, 1-(4-fluorophenyl)-4-{5-methylthieno[2,3-d]pyrimidin-4-yl}piperazine] | > 10 µM | > 10 µM
12 | Cc1csc2ncnc(N3CCC[C@@H]3CO)c12 [Example 194, [(2R)-1-{5-methylthieno[2,3-d]pyrimidin-4-yl}pyrrolidin-2-yl]methanol] | > 10 µM | > 10 µM
13 | Cc1csc2ncnc(NCCC3CCCN3C)c12 (centres unmarked) [Example 106, 5-methyl-N-[2-(1-methylpyrrolidin-2-yl)ethyl]thieno[2,3-d]pyrimidin-4-amine] | > 10 µM | > 10 µM
14 | COc1ccc(N2CCN(c3ncnc4scc(C)c34)CC2)cc1OC [Example 4, 4-(4-(3,4-dimethoxyphenyl)piperazin-1-yl)-5-methylthieno[2,3-d]pyrimidine] | > 10 µM | > 10 µM
15 | Cc1csc2ncnc(N(CCN(C)C)Cc3ccccc3)c12 [Example 244, N-benzyl-N-[2-(dimethylamino)ethyl]-5-methylthieno[2,3-d]pyrimidin-4-amine] | > 10 µM | > 10 µM
16 | Cc1csc2ncnc(N(Cc3ccccc3)C(C)C)c12 [Example 225, N-benzyl-5-methyl-N-(propan-2-yl)thieno[2,3-d]pyrimidin-4-amine] | > 10 µM | > 10 µM
17 | Cc1csc2ncnc(N(C)CCO)c12 [Example 183, 2-[methyl({5-methylthieno[2,3-d]pyrimidin-4-yl})amino]ethan-1-ol] | > 10 µM | > 10 µM
18 | Cc1csc2ncnc(NCCN(C(C)C)C(C)C)c12 [Example 137] | > 10 µM | > 10 µM
19 | Cc1csc2ncnc(N3CCN(c4ccccc4F)CC3)c12 [Example 245, 1-(2-fluorophenyl)-4-{5-methylthieno[2,3-d]pyrimidin-4-yl}piperazine] | > 10 µM | > 10 µM

Row | SMILES | EC50 (human H4) | EC50 (human H1)
20 | Cc1csc2ncnc(N(CCCO)Cc3ccccn3)c12 [Example 237, 3-({5-methylthieno[2,3-d]pyrimidin-4-yl}(pyridin-2-ylmethyl)amino)propan-1-ol] | > 10 µM | > 10 µM
21 | Cc1csc2ncnc(N3CCCC4CCCCC43)c12 (centres unmarked) [Example 222, 1-{5-methylthieno[2,3-d]pyrimidin-4-yl}-decahydroquinoline] | > 10 µM | > 10 µM
22 | Cc1csc2ncnc(N3CCCN(Cc4ccccc4)CC3)c12 [Example 242, 1-benzyl-4-{5-methylthieno[2,3-d]pyrimidin-4-yl}-1,4-diazepane] | > 10 µM | > 10 µM
23 | Cc1csc2ncnc(NCC3(O)CCCCC3)c12 [Example 158, 1-[({5-methylthieno[2,3-d]pyrimidin-4-yl}amino)methyl]cyclohexan-1-ol] | > 10 µM | > 10 µM
24 | COCCNc1ncnc2scc(C)c12 [Example 64, N-(2-methoxyethyl)-5-methylthieno[2,3-d]pyrimidin-4-amine] | > 10 µM | > 10 µM
25 | CC(=O)N[C@H]1CCN(c2ncnc3scc(C)c23)C1 [Example 212, N-[(3S)-1-{5-methylthieno[2,3-d]pyrimidin-4-yl}pyrrolidin-3-yl]acetamide] | > 10 µM | > 10 µM
26 | Cc1csc2ncnc(N(CCC#N)Cc3ccccc3)c12 [Example 153, 3-[benzyl({5-methylthieno[2,3-d]pyrimidin-4-yl})amino]propanenitrile] | > 10 µM | > 10 µM
27 | CCN(CCO)c1ncnc2scc(C)c12 [Example 188, 2-[ethyl({5-methylthieno[2,3-d]pyrimidin-4-yl})amino]ethan-1-ol] | > 10 µM | > 10 µM
28 | CNc1ncnc2scc(C)c12 [Example 49, N,5-dimethylthieno[2,3-d]pyrimidin-4-amine] | > 10 µM | > 10 µM
29 | Cc1csc2ncnc(N(C)CC(O)c3ccc(O)cc3)c12 (centres unmarked) [Example 238, 4-{1-hydroxy-2-[methyl({5-methylthieno[2,3-d]pyrimidin-4-yl})amino]ethyl}phenol] | > 10 µM | > 10 µM
30 | Cc1csc2ncnc(N3CCCC(CO)C3)c12 (centres unmarked) [Example 204, (1-{5-methylthieno[2,3-d]pyrimidin-4-yl}piperidin-3-yl)methanol] | > 10 µM | > 10 µM
31 | COc1ccc(C(=O)CNc2ncnc3scc(C)c23)cc1 [Example 174, 1-(4-methoxyphenyl)-2-({5-methylthieno[2,3-d]pyrimidin-4-yl}amino)ethan-1-one] | > 10 µM | > 10 µM
32 | CCCN(CCC)c1ncnc2scc(C)c12 [Example 196, 5-methyl-N,N-dipropylthieno[2,3-d]pyrimidin-4-amine] | > 10 µM | > 10 µM
33 | Cc1csc2ncnc(NN3CCOCC3)c12 [Example 81, N-{5-methylthieno[2,3-d]pyrimidin-4-yl}morpholin-4-amine] | > 10 µM | > 10 µM
34 | Cc1csc2ncnc(N3CCN(C(=O)OC(C)(C)C)C[C@H]3CO)c12 [Example 283, tert-butyl (3S)-3-(hydroxymethyl)-4-{5-methylthieno[2,3-d]pyrimidin-4-yl}piperazine-1-carboxylate] | > 10 µM | > 10 µM
35 | Cc1csc2ncnc(N3CCN(c4ccc(C(F)(F)F)cn4)CC3)c12 [Example 2, 5-methyl-4-(4-(5-(trifluoromethyl)pyridin-2-yl)piperazin-1-yl)thieno[2,3-d]pyrimidine] | > 10 µM | > 10 µM
36 | Cc1csc2ncnc(NN3CCN(C)CC3)c12 [Example 93, 4-methyl-N-{5-methylthieno[2,3-d]pyrimidin-4-yl}piperazin-1-amine] | > 10 µM | > 10 µM
37 | Cc1csc2ncnc(NCCN)c12 [Example 55, N-(2-aminoethyl)-5-methylthieno[2,3-d]pyrimidin-4-amine] | > 10 µM | > 10 µM
